Read-outs that look alike come from different tables or passages of the source.
What was measured:
Assay in all cases: Eurofins kinase selectivity profile against 380 other human recombinant kinases (Table S2)
Type in all cases: biochemical
[1] = molecular target: T1, 380 human recombinant protein kinases (Homo sapiens, UniProt O43318); settings: TAK1(h), read-out: Inhibition rate (%)
T1 construct: purchased Eurofins (Celle Lévescault)
T1 sequence (O43318 1-606): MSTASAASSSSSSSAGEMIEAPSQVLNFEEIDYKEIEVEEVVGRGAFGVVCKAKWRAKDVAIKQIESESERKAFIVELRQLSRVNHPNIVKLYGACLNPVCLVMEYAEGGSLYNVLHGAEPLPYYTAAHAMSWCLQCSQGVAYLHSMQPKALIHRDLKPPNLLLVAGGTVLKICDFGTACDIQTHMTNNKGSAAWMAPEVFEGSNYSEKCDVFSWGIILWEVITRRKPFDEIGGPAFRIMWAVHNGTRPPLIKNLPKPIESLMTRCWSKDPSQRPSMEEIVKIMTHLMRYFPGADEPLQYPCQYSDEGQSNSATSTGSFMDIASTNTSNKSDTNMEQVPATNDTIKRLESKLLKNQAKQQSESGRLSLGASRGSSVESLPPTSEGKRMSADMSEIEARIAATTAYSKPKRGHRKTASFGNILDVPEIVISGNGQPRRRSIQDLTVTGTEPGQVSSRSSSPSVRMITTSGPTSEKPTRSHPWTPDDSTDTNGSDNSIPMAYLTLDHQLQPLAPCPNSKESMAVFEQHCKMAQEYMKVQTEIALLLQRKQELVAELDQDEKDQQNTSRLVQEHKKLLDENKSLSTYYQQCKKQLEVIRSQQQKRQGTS
Outline: (§1)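 The inhibitor was sent to a contract lab and screened at various concentrations against 380 human recombinant protein kinases. This served as a counter-screen for MK2 specificity.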

[2] = molecular target: T2, 380 human recombinant protein kinases (Homo sapiens, UniProt P37173); settings: TGFBR2(h), read-out: Inhibition rate (%)
T2 construct: purchased Eurofins (Celle Lévescault)
Outline: as §1

[3] = molecular target: T3, 380 human recombinant protein kinases (Homo sapiens, UniProt P42684); settings: Arg(h), read-out: Inhibition rate
T3 construct: purchased Eurofins (Celle Lévescault)
Outline: as §1

[4] = molecular target: T4, 380 human recombinant protein kinases (Homo sapiens, UniProt P68400); settings: read-out: Inhibition rate; for inhibition at 0.01 µM: 10 nM; for inhibition at 0.1 µM: 100 nM; for inhibition at 1 µM: 1000 nM
T4 construct: purchased Eurofins (Celle Lévescault)
Outline: as §1

[5] = molecular target: T5, 380 human recombinant protein kinases (Homo sapiens, UniProt Q06187, R28H); settings: BTK(R28H)(h), read-out: Inhibition rate
T5 construct: purchased Eurofins (Celle Lévescault)
Outline: as §1

[6] = molecular target: T6, 380 human recombinant protein kinases (Homo sapiens, UniProt Q06418); settings: Rse(h), read-out: Inhibition rate
T6 construct: purchased Eurofins (Celle Lévescault)
T6 sequence (Q06418 41-890): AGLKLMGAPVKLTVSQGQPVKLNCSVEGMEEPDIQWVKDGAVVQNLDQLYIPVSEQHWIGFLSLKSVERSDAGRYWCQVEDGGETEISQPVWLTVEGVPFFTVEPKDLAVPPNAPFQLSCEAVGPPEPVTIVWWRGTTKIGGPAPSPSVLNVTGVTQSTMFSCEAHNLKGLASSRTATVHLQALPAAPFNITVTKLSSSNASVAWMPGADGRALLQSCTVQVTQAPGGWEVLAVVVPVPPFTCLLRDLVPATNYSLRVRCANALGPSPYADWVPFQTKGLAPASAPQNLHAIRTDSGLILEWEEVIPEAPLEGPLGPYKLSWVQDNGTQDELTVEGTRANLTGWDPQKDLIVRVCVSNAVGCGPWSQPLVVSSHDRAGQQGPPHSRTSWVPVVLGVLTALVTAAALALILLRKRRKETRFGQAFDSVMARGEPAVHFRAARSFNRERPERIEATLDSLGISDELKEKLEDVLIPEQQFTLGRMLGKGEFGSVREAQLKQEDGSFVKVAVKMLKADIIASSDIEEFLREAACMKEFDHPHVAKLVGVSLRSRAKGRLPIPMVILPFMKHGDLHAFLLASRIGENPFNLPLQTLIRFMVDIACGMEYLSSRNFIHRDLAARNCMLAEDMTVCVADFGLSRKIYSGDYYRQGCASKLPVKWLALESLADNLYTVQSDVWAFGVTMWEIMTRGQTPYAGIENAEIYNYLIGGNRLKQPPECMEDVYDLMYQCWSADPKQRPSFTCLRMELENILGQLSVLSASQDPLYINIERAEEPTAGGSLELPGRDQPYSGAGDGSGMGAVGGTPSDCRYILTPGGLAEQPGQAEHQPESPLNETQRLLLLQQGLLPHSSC
Outline: as §1

[7] = molecular target: T7, 380 human recombinant protein kinases (Homo sapiens, UniProt Q9H422); settings: HIPK3(h), read-out: Inhibition rate
T7 construct: purchased Eurofins (Celle Lévescault)
Outline: as §1

[8] = molecular target: T8, 380 human recombinant protein kinases (Homo sapiens, UniProt Q9HBH9); settings: Mnk2(h), read-out: Inhibition rate
T8 construct: purchased Eurofins (Celle Lévescault)
Outline: as §1

T7 sequence (Q9H422 whole entry): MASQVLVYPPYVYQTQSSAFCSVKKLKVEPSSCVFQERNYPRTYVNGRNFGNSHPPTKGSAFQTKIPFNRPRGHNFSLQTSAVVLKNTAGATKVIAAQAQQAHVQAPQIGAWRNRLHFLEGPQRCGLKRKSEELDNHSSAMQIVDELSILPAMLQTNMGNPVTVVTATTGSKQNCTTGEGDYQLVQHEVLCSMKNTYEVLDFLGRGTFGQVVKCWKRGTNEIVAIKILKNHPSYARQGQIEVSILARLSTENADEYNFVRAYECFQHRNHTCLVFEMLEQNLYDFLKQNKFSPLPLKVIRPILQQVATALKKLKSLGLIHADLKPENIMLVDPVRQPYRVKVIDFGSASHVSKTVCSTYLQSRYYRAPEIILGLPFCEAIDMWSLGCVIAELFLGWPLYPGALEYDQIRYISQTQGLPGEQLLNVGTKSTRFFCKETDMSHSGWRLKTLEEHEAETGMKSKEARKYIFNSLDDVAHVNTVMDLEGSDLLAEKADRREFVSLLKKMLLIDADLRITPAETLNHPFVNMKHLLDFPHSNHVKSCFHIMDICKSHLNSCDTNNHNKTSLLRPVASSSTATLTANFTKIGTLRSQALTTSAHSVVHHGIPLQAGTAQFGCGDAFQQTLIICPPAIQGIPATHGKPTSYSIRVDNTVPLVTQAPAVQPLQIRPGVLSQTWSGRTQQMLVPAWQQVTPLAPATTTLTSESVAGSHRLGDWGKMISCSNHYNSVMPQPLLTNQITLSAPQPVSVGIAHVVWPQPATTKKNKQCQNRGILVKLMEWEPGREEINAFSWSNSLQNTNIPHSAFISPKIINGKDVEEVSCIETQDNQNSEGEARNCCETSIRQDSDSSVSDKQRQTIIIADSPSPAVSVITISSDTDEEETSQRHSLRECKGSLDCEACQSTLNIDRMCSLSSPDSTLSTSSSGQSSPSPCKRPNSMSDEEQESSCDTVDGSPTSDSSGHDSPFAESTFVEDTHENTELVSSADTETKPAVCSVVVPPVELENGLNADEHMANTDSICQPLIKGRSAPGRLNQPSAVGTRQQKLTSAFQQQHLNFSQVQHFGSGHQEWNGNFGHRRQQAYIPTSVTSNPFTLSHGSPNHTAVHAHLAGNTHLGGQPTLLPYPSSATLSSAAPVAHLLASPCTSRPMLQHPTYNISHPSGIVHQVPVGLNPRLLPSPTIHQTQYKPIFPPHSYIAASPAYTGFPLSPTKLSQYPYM
T2 sequence (P37173 23-567): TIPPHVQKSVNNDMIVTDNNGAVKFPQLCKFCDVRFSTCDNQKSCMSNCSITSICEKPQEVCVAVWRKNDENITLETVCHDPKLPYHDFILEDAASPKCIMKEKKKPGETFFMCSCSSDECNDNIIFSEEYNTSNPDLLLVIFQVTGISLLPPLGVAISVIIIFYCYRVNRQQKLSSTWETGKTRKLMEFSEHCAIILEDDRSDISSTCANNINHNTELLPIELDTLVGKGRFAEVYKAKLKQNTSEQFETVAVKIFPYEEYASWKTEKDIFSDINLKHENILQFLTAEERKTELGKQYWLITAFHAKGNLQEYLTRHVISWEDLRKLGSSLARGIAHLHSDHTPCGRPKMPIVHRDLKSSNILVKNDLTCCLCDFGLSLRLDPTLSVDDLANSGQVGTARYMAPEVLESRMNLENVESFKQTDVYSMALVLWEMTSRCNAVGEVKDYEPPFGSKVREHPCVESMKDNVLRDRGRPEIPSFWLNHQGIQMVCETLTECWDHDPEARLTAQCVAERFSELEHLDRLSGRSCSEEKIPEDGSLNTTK
T8 sequence (Q9HBH9 whole entry): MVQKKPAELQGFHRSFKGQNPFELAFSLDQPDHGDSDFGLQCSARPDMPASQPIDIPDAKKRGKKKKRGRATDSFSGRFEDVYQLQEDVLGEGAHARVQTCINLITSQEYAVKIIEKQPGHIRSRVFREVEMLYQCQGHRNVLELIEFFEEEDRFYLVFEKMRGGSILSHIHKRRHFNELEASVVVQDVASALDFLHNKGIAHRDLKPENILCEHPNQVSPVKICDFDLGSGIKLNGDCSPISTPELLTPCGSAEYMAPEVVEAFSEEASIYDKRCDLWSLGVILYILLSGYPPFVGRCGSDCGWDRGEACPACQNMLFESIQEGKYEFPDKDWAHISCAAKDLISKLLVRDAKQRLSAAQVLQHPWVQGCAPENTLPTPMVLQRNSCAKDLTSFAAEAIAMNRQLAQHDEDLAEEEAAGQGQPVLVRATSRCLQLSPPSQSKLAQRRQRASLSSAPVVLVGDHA
T4 sequence (P68400 whole entry): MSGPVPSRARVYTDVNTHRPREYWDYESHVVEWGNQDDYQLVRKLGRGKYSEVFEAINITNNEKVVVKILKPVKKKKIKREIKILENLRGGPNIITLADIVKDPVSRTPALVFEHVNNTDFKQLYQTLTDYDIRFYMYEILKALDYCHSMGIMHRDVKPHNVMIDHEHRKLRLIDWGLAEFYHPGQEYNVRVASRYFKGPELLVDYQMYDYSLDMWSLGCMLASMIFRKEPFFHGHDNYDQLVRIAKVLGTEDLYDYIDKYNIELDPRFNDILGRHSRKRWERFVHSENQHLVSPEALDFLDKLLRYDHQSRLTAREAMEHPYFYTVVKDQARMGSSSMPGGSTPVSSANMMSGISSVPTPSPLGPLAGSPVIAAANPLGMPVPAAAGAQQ
T5 sequence (Q06187 whole entry R28H): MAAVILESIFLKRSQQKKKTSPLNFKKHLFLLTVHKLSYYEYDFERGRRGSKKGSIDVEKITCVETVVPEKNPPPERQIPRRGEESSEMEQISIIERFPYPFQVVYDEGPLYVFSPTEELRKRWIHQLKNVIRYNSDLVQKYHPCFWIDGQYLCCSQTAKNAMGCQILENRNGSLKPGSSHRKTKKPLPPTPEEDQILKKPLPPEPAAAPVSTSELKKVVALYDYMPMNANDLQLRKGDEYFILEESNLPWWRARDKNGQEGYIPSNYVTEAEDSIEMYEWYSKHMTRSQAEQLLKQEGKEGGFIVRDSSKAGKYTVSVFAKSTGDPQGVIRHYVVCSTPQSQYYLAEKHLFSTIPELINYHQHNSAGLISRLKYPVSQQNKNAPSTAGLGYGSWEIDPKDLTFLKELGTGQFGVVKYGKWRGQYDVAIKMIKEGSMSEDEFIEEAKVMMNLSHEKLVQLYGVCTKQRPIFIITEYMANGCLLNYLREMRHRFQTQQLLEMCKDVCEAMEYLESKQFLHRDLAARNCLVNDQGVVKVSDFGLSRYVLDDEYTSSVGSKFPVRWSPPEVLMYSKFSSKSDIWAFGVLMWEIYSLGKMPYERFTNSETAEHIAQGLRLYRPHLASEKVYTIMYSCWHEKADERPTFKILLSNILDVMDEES
T3 sequence (P42684 whole entry): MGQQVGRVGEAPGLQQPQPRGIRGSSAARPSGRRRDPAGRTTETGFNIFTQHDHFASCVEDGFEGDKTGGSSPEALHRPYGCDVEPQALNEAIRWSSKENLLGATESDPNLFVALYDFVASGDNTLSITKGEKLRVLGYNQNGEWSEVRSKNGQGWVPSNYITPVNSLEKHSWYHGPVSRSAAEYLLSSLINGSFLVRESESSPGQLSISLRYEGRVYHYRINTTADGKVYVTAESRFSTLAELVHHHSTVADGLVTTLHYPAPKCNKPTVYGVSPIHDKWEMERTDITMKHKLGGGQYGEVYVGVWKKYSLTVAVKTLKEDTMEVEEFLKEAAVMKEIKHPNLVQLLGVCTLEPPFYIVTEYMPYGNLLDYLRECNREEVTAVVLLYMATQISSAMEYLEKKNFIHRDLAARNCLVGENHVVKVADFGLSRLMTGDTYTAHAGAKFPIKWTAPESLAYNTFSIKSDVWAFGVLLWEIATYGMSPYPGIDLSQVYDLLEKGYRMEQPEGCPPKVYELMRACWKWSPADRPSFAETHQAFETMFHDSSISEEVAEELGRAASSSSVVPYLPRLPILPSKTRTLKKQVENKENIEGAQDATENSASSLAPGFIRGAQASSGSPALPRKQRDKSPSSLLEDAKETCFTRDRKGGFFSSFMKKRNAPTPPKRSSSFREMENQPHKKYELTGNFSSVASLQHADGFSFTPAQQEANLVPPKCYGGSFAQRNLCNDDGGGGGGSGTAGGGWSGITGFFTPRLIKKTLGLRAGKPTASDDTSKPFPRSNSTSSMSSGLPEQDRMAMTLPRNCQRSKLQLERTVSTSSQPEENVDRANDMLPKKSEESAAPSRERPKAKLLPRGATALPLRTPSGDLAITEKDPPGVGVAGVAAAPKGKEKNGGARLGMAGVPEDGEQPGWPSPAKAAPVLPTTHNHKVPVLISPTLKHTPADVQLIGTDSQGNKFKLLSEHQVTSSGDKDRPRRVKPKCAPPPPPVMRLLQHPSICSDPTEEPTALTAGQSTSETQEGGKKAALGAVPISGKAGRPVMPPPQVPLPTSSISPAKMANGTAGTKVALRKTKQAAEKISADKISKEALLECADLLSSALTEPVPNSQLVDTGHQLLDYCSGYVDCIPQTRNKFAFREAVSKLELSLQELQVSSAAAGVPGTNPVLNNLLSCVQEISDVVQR

C=CC(=O)Nc1cc(-c2cc(-c3cc4c([nH]3)CCNC4=O)ccn2)ccc1OC(F)(F)F [compound 11]
inhibition at 0.01 µM ([1]; 10 nM): 9%
inhibition at 0.1 µM ([1]; 100 nM): 2%
inhibition at 1 µM ([1]; 1000 nM): 47%
inhibition at 0.01 µM ([2]; 10 nM): -11%
inhibition at 0.1 µM ([2]; 100 nM): 2%
inhibition at 1 µM ([2]; 1000 nM): 6%
inhibition at 0.01 µM ([3]; 10 nM): 1%
inhibition at 0.1 µM ([3]; 100 nM): 2%
inhibition at 1 µM ([3]; 1000 nM): 6%
inhibition at 0.01 µM ([4]; CK2(h)): -3%
inhibition at 0.1 µM ([4]; CK2(h)): -1%
inhibition at 1 µM ([4]; CK2(h)): 0%
inhibition at 0.01 µM ([4]; CK2α1(h)): -9%
inhibition at 0.1 µM ([4]; CK2α1(h)): -2%
inhibition at 1 µM ([4]; CK2α1(h)): 9%
inhibition at 0.01 µM ([5]; 10 nM): -27%
inhibition at 0.1 µM ([5]; 100 nM): 6%
inhibition at 1 µM ([5]; 1000 nM): 1%
inhibition at 0.01 µM ([6]; 10 nM): 7%
inhibition at 0.1 µM ([6]; 100 nM): -3%
inhibition at 1 µM ([6]; 1000 nM): -5%
inhibition at 0.01 µM ([7]; 10 nM): -9%
inhibition at 0.1 µM ([7]; 100 nM): -8%
inhibition at 1 µM ([7]; 1000 nM): 1%
inhibition at 0.01 µM ([8]; 10 nM): 4%
inhibition at 0.1 µM ([8]; 100 nM): 13%
inhibition at 1 µM ([8]; 1000 nM): 61%
